In ChEMBL document CHEMBL4507299, “Data for DCP probe PF-04554878” (2021):

Key:
[1] = target: Atypical kinase COQ8A, mitochondrial (Homo sapiens) (UniProt Q8NI60)
[2] = target: Bone morphogenetic protein receptor type-2 (Homo sapiens) (UniProt Q13873)
[3] = test system: Epidermal growth factor receptor (Homo sapiens), P00533 [L858R]
[4] = test system: Epidermal growth factor receptor (Homo sapiens), P00533 [L858R,T790M]
[5] = target: Receptor-type tyrosine-protein kinase FLT3 (Homo sapiens) (UniProt P36888)
[6] = target: Glycogen synthase kinase-3 beta (Homo sapiens, UniProt P49841)
[7] = target: Inhibitor of nuclear factor kappa-B kinase subunit alpha (Homo sapiens) (UniProt O15111)
[8] = target: T1, Inhibitor of nuclear factor kappa-B kinase subunit beta (Homo sapiens) (UniProt O14920)
T1 sequence (whole entry): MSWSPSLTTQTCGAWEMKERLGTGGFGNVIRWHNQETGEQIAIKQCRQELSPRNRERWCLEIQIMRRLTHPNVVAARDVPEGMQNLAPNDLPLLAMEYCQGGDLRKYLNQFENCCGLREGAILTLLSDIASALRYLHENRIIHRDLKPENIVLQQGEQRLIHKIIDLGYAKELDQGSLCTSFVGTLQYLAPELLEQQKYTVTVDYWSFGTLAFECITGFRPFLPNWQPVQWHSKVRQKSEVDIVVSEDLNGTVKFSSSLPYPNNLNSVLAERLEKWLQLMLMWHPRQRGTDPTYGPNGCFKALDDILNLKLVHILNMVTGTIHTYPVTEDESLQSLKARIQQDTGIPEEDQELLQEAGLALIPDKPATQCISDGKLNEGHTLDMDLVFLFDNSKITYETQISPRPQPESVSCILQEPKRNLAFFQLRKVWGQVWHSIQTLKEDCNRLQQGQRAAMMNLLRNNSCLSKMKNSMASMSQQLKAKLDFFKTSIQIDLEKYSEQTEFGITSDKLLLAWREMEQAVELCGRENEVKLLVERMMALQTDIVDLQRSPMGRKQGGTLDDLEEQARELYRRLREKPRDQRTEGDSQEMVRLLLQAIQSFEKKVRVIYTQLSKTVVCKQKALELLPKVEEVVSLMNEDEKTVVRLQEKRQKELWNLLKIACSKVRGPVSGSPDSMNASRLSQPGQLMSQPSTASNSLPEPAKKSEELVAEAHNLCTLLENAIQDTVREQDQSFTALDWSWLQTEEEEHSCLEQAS

[9] = target: Dual specificity mitogen-activated protein kinase kinase 7 (Homo sapiens) (UniProt O14733)
[10] = target: Myosin light chain kinase (Homo sapiens) (UniProt Q32MK0)
Chain of Myosin light chain kinase (Homo sapiens) (Q32MK0 whole entry): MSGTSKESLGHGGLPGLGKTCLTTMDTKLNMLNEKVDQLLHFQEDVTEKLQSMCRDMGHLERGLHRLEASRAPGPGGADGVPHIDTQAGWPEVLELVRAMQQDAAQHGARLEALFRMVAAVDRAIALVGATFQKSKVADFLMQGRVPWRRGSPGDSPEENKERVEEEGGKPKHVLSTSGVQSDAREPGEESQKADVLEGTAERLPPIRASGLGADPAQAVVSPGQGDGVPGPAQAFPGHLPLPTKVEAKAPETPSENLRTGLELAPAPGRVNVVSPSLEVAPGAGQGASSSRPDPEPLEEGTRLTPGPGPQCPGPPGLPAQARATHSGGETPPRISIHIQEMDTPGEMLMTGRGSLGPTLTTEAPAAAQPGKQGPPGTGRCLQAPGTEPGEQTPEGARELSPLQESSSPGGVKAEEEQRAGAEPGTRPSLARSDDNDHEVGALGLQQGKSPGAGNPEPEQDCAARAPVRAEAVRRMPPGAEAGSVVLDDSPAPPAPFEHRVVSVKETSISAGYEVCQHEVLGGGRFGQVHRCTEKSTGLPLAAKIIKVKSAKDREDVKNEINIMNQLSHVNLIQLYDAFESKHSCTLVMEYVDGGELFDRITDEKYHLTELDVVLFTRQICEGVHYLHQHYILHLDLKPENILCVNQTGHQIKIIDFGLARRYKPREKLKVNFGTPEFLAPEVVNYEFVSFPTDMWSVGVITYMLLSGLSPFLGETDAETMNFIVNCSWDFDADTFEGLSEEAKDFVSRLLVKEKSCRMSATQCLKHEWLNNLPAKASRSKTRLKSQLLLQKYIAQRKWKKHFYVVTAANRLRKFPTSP

[11] = target: Myosin light chain kinase, smooth muscle (Homo sapiens) (UniProt Q15746)
[12] = target: Serine/threonine-protein kinase Nek1 (Homo sapiens) (UniProt Q96PY6)
[13] = target: Serine/threonine-protein kinase Nek5 (Homo sapiens) (UniProt Q6P3R8)
Chain of Serine/threonine-protein kinase Nek5 (Homo sapiens) (Q6P3R8 whole entry): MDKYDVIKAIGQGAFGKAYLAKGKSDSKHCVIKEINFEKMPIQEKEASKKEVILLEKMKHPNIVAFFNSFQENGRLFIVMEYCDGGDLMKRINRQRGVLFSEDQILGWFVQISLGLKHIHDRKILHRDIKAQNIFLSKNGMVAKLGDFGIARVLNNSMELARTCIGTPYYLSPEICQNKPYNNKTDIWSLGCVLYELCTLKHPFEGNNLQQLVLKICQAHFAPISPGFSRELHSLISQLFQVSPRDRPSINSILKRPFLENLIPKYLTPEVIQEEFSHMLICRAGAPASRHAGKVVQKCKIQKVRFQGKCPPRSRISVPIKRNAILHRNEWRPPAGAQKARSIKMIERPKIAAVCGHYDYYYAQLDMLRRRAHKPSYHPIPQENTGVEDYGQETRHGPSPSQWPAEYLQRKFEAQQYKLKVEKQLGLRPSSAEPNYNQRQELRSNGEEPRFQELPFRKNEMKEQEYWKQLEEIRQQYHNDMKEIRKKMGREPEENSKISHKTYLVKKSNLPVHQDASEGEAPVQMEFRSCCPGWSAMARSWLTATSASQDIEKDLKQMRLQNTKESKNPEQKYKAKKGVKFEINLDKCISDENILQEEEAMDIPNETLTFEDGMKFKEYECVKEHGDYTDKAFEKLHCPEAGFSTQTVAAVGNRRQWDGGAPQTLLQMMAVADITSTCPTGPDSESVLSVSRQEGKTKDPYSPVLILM

[14] = target: Serine/threonine-protein kinase NIM1 (Homo sapiens) (UniProt Q8IY84)
Chain of Serine/threonine-protein kinase NIM1 (Homo sapiens) (Q8IY84 whole entry): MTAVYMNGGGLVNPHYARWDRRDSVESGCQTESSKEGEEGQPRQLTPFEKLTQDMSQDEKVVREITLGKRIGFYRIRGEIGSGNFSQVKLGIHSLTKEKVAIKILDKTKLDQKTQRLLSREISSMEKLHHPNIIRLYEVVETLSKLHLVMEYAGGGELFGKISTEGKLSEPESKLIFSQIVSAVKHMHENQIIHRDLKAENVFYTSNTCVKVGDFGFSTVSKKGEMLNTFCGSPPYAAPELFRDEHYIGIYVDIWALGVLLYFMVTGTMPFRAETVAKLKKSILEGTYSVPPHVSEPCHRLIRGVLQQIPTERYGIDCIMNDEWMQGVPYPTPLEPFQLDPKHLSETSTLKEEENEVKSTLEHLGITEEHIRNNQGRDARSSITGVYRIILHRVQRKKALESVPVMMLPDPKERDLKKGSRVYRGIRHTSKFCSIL

[15] = target: Mitogen-activated protein kinase 13 (Homo sapiens) (UniProt O15264)
[16] = target: Serine/threonine-protein kinase PAK 2 (Homo sapiens) (UniProt Q13177)
[17] = target: Serine/threonine-protein kinase PAK 4 (Homo sapiens) (UniProt O96013)
[18] = target: Phosphatidylinositol 4-phosphate 3-kinase C2 domain-containing subunit beta (Homo sapiens) (UniProt O00750)
[19] = test system: Phosphatidylinositol 4,5-bisphosphate 3-kinase catalytic subunit alpha isoform (Homo sapiens), P42336 [H1047Y]
[20] = target: cAMP-dependent protein kinase catalytic subunit alpha (Homo sapiens) (UniProt P17612)
[21] = target: Serine/threonine-protein kinase PLK3 (Homo sapiens) (UniProt Q9H4B4)
[22] = target: Ribosomal protein S6 kinase alpha-4 (Homo sapiens) (UniProt O75676)
[23] = target: Ribosomal protein S6 kinase alpha-3 (Homo sapiens) (UniProt P51812)
[24] = target: Ribosomal protein S6 kinase alpha-2 (Homo sapiens) (UniProt Q15349)
Chain of Ribosomal protein S6 kinase alpha-2 (Homo sapiens) (Q15349 whole entry): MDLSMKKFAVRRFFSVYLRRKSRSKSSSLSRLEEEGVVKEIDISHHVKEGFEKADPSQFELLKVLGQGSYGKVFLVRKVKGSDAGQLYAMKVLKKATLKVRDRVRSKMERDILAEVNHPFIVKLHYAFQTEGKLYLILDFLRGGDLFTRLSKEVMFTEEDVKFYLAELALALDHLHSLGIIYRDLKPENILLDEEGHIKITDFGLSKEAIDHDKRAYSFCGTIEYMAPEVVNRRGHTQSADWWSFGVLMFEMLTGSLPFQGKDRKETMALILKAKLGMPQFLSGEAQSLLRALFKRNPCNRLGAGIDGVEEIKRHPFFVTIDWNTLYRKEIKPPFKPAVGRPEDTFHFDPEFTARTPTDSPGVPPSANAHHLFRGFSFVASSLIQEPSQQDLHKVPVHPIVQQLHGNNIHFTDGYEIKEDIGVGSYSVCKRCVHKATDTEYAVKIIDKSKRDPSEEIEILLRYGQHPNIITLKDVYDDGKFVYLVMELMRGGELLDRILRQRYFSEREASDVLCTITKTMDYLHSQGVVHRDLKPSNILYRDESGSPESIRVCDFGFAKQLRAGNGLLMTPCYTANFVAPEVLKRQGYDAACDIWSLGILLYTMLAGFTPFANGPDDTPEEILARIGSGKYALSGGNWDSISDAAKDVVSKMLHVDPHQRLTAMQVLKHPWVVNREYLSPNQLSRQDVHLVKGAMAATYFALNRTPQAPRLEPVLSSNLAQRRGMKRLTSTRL

[25] = target: Ribosomal protein S6 kinase alpha-2 (Homo sapiens) (UniProt Q15349); remark: listed apart in the source
[26] = target: Ribosomal protein S6 kinase alpha-6 (Homo sapiens) (UniProt Q9UK32)
[27] = target: Serine/threonine-protein kinase SIK1 (Homo sapiens) (UniProt P57059)
[28] = target: SNF-related serine/threonine-protein kinase (Homo sapiens) (UniProt Q9NRH2)
[29] = target: TRAF2 and NCK-interacting protein kinase (Homo sapiens) (UniProt Q9UKE5)
[30] = target: Serine/threonine-protein kinase ULK2 (Homo sapiens) (UniProt Q8IYT8)
Chain of Serine/threonine-protein kinase ULK2 (Homo sapiens) (Q8IYT8 whole entry): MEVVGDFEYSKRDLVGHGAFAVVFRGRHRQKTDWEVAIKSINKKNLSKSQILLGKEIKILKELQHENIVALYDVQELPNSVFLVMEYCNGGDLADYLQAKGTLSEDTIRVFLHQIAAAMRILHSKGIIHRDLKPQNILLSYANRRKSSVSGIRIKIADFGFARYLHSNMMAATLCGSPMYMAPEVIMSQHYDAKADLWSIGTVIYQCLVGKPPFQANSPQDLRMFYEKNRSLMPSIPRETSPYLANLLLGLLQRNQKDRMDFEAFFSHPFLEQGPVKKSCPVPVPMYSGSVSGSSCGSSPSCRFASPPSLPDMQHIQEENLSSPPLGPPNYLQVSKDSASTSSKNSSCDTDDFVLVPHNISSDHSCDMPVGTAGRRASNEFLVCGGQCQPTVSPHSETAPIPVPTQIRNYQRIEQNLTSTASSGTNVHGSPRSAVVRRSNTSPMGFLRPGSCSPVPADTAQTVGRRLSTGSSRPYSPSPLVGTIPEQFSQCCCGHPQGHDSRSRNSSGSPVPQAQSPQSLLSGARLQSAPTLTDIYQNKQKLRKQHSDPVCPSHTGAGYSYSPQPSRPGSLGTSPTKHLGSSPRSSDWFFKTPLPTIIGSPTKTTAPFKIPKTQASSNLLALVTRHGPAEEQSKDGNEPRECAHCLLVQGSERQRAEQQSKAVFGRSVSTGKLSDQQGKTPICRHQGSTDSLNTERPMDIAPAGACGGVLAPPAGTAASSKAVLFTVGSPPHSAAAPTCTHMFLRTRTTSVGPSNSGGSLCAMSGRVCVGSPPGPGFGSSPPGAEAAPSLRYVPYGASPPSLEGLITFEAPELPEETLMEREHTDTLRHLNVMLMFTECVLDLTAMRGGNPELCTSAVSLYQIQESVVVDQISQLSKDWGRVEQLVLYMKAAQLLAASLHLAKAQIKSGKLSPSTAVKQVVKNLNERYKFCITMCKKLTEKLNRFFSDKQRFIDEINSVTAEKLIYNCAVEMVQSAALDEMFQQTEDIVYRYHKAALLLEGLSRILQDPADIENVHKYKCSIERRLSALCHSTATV

[31] = target: Serine/threonine-protein kinase WNK2 (Homo sapiens) (UniProt Q9Y3S1)
[32] = target: Histamine H2 receptor (Homo sapiens) (UniProt P25021); details: Compound concentration 10.0 uM
[33] = target: Alpha-2C adrenergic receptor (Homo sapiens) (UniProt P18825); details: Compound concentration 10.0 uM
[34] = target: Muscarinic acetylcholine receptor M2 (Homo sapiens) (UniProt P08172); details: Compound concentration 10.0 uM
[35] = Compound concentration 100.0 nM
[36] = Compound concentration 1000.0 nM

Chain of Bone morphogenetic protein receptor type-2 (Homo sapiens) (Q13873 whole entry): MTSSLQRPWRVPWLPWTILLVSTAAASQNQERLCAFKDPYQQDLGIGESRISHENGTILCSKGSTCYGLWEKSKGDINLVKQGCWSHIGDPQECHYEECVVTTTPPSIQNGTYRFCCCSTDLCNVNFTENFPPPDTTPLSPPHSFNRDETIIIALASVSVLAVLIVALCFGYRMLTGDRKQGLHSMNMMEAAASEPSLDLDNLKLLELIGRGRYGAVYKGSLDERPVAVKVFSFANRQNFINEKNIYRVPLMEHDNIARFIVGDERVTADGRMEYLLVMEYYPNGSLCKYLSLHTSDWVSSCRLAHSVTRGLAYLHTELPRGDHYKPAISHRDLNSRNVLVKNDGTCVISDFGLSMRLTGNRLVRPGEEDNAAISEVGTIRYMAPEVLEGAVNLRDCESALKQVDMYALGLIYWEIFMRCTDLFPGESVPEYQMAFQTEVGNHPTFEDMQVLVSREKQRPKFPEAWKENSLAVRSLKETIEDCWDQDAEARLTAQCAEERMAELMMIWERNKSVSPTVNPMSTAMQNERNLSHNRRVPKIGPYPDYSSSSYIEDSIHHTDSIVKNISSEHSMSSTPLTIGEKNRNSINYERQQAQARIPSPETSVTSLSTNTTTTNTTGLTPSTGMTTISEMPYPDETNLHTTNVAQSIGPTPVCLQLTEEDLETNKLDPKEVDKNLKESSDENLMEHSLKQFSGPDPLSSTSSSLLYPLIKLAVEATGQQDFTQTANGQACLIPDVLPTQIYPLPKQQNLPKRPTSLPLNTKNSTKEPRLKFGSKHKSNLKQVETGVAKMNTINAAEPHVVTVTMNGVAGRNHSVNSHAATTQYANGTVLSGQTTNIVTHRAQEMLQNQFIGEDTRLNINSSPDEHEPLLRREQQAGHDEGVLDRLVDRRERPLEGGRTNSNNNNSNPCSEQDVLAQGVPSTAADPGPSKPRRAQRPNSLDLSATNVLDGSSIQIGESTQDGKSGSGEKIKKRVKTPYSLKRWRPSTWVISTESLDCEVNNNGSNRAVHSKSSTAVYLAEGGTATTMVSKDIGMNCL

CNC(=O)c1ccc(Nc2ncc(C(F)(F)F)c(NCc3nccnc3N(C)S(C)(=O)=O)n2)cc1 [DEFACTINIB]
inactive: residual activity [1, 35] 98% | residual activity [2, 35] 91% | residual activity [3, 35] 100% | residual activity [4, 35] 91% | residual activity [5, 35] 74% | residual activity [6, 35] 87% | residual activity [7, 35] 98% | residual activity [8, 35] 100% | residual activity [9, 35] 97% | residual activity [10, 35] 100% | residual activity [11, 35] 75% | residual activity [12, 35] 75% | residual activity [13, 35] 100% | residual activity [14, 35] 100% | residual activity [15, 35] 91% | residual activity [16, 35] 72% | residual activity [17, 35] 58% | residual activity [18, 35] 87% | residual activity [19, 35] 100% | residual activity [20, 35] 100% | residual activity [21, 35] 91% | residual activity [22, 35] 57% | residual activity [23, 35] 82% | residual activity [24, 35] 77% | residual activity [25, 35] 61% | residual activity [26, 35] 70% | residual activity [27, 35] 90% | residual activity [28, 35] 100% | residual activity [29, 35] 65% | residual activity [30, 35] 75% | residual activity [31, 35] 94% | inhibition [32] 30.2% | inhibition [33] 4.73% | inhibition [34] 19.5%

CN(c1ccnc(CNc2nc(Nc3ccc4c(c3)CC(=O)N4)ncc2C(F)(F)F)n1)S(C)(=O)=O [PF-00911705]
active: residual activity [14, 36] 9.5% | residual activity [21, 36] 1.7% | residual activity [23, 36] 25% | residual activity [26, 36] 4.6% | residual activity [30, 36] 5.4% | residual activity [31, 36] 22%
inactive: residual activity [1, 36] 79% | residual activity [2, 36] 60% | residual activity [3, 36] 73% | residual activity [4, 36] 56% | residual activity [5, 36] 64% | residual activity [6, 36] 57% | residual activity [7, 36] 57% | residual activity [8, 36] 78% | residual activity [9, 36] 73% | residual activity [10, 36] 100% | residual activity [11, 36] 71% | residual activity [12, 36] 51% | residual activity [13, 36] 63% | residual activity [15, 36] 100% | residual activity [16, 36] 83% | residual activity [17, 36] 52% | residual activity [18, 36] 79% | residual activity [19, 36] 85% | residual activity [20, 36] 81% | residual activity [22, 36] 72% | residual activity [24, 36] 57% | residual activity [25, 36] 95% | residual activity [27, 36] 76% | residual activity [28, 36] 85% | residual activity [29, 36] 77% | inhibition [32] 1.75% | inhibition [33] 4.91% | inhibition [34] -2.08%
